{
  "source": "paper PMC10748408",
  "about": "(Frontiers in Oncology, 2023)",
  "type_in_all_cases": "in vivo, BALB/c mice",
  "key": {"[1]": {"test_system": "normal mice", "experiment": "Serum biochemical parameters (ALT, AST, creatinine, urea) of normal mice treated with ART", "procedure": "Levels of alanine aminotransferase (ALT) and aspartate aminotransferase (AST) from the serum were determined using ALT and AST estimation kits (Robonik India Pvt. Ltd, India). Briefly, for ALT activity estimation, Reagent 1 (Tris Buffer, L-Alanine, Lactate Dehydrogenase) and Reagent 2 (α-ketoglutarate, NADH) was mixed (4:1) with 100 µl serum. After 60 seconds incubation, absorbance was measured at 340 nm every minute for 180 seconds (ΔA/minute). Finally, the activity was estimated using the formula: Activity of the sample = (ΔA/minute x 1746). Analysis and final calculations were carried out according to the manufacturer’s protocol ([29]) For AST activity estimation, Reagent 1 (Tris Buffer, L-Aspartate, Lactate Dehydrogenase; >600U/L, Malate dehydrogenase; >600U/L) and Reagent 2 (α-ketoglutarate, NADH) was mixed together (4:1) with 100 µl serum. After incubation for 60 seconds, absorbance was measured at 340 nm per minute for 180 seconds (ΔA/minute). Finally, the activity was estimated using the formula: Activity of the sample = (ΔA/minute x 1746). Analysis and final calculations were carried out according to the manufacturer’s protocol ([30]). For estimation of creatinine level, picric acid (0.5 ml), buffer (0.5 ml) and sample (Test)/standard (S) (0.1 ml) were mixed and absorbance was measured at 520 nm for 30 seconds and 60 seconds. The rate of change of absorbance was determined for the standard (ΔS) and test (ΔT) samples. The levels were estimated using the formula: creatinine (mg/dl) = (ΔT)/(ΔS) x 2.0 ([31]). Urea levels were estimated using specific metabolite analysis kits. Buffer (1 ml), enzyme (0.1 ml), sample (test)/standard (0.1 ml) and chromogen reagent (0.2 ml) were mixed. Absorbance was measured at 570 nm after 5 minutes of incubation of test (Abs T) and standard (Abs S) samples. The levels were estimated using the formula: Urea (mg/dl) = (AbsT)/(AbsS) x 40. Analysis and calculations were carried out according to the manufacturer’s protocol ([32]). […]"}, "[2]": {"test_system": "tumor-bearing mice", "experiment": "Serum biochemical parameters (ALT, AST, creatinine, urea) of tumor-bearing mice treated with ART", "conditions": "7 days", "procedure": "Mouse mammary 4T1 cells in passage numbers between 7 and 12 (10^4 cells/ml in 50 µl PBS) were injected into the inguinal 4th mammary fat pad of BALB/c mice ([23], [24]). Normal mice received an equal volume of sterile PBS. A palpable tumor was allowed to develop for 14 days ([24]). […] Normal (mammary fat pad surrounding the 4th inguinal mammary pad), mammary tumor, and organs like lungs, kidney, liver, and blood were collected at the end of the experimental schedule. Body weight and tumor volume of each mouse were recorded daily during the tenure of the experiment. Tumor volume was calculated using the following formula: length (mm) × width^2 (mm) × 0.52 ([25]). Levels of alanine aminotransferase (ALT) and aspartate aminotransferase (AST) from the serum were determined using ALT and AST estimation kits (Robonik India Pvt. Ltd, India). Briefly, for ALT activity estimation, Reagent 1 (Tris Buffer, L-Alanine, Lactate Dehydrogenase) and Reagent 2 (α-ketoglutarate, NADH) was mixed (4:1) with 100 µl serum. After 60 seconds incubation, absorbance was measured at 340 nm every minute for 180 seconds (ΔA/minute). Finally, the activity was estimated using the formula: Activity of the sample = (ΔA/minute x 1746). Analysis and final calculations were carried out according to the manufacturer’s protocol ([29]) For AST activity estimation, Reagent 1 (Tris Buffer, L-Aspartate, Lactate Dehydrogenase; >600U/L, Malate dehydrogenase; >600U/L) and Reagent 2 (α-ketoglutarate, NADH) was mixed together (4:1) with 100 µl serum. After incubation for 60 seconds, absorbance was measured at 340 nm per minute for 180 seconds (ΔA/minute). Finally, the activity was estimated using the formula: Activity of the sample = (ΔA/minute x 1746). Analysis and final calculations were carried out according to the manufacturer’s protocol ([30]). For estimation of creatinine level, picric acid (0.5 ml), buffer (0.5 ml) and sample (Test)/standard (S) (0.1 ml) were mixed and absorbance was measured at 520 nm for 30 seconds and 60 seconds. The rate of change of absorbance was determined for the standard (ΔS) and test (ΔT) samples. The levels were estimated using the formula: creatinine (mg/dl) = (ΔT)/(ΔS) x 2.0 ([31]). Urea levels were estimated using specific metabolite analysis kits. Buffer (1 ml), enzyme (0.1 ml), sample (test)/standard (0.1 ml) and chromogen reagent (0.2 ml) were mixed. Absorbance was measured at 570 nm after 5 minutes of incubation of test (Abs T) and standard (Abs S) samples. The levels were estimated using the formula: Urea (mg/dl) = (AbsT)/(AbsS) x 40. Analysis and calculations were carried out according to the manufacturer’s protocol ([32])."}, "[3]": {"test_system": "tumor cells", "experiment": "Cell cycle assay (PI, flow cytometry) of cells isolated from tumors", "conditions": "25 and 50 mg/kg bodyweight ART vs untreated tumor-bearing mice, p<0.05", "procedure": "Cells (1 x 10^6) were isolated from tissues by collagenase-hyaluronidase digestion and fixed in ice-cold ethanol at -20°C. Samples were washed and resuspended in PBS containing 40 µg/mL RNase A for 1 hr. The cells were then stained with 30 µg/mL propidium iodide in the dark for 30 minutes and analyzed by flow cytometry using the BD Verse (BD Biosciences, USA). Data were analyzed using the BD FACSuite™ software ([35])."}, "[4]": {"conditions": "ART 6.25 mg/kg body wt, 3 weeks (21 days)"}, "[5]": {"conditions": "ART 12.5 mg/kg body wt, 3 weeks (21 days)"}, "[6]": {"conditions": "ART 25 mg/kg body wt, 3 weeks (21 days)"}, "[7]": {"conditions": "ART 50 mg/kg body wt, 3 weeks (21 days)"}},
  "data": [
    {"smiles": "C[C@@H]1CC[C@H]2[C@@H](C)C(=O)O[C@@H]3O[C@@]4(C)CC[C@@H]1[C@]32OO4", "note": "[ART, Artemisinin]", "values": [
      {"measurement": "ALT", "setting": "[1]; [4]", "value": "28.1±2.6", "unit": "U/l"},
      {"measurement": "AST", "setting": "[1]; [4]", "value": "29.8±4.6", "unit": "U/l"},
      {"measurement": "Creatinine", "setting": "[1]; [4]", "value": "0.48 ± 0.21", "unit": "mg/dL"},
      {"measurement": "Urea", "setting": "[1]; [4]", "value": "31.6 ± 1.9", "unit": "mg/dL"},
      {"measurement": "ALT", "setting": "[1]; ART 6.25 mg/kg body wt, 7 days", "value": "23.7 ± 1.8", "unit": "U/l"},
      {"measurement": "AST", "setting": "[1]; ART 6.25 mg/kg body wt, 7 days", "value": "27.3 ± 0.8", "unit": "U/l"},
      {"measurement": "Creatinine", "setting": "[1]; ART 6.25 mg/kg body wt, 7 days", "value": "0.51 ± 0.09", "unit": "mg/dL"},
      {"measurement": "Urea", "setting": "[1]; ART 6.25 mg/kg body wt, 7 days", "value": "24.5 ± 1.2", "unit": "mg/dL"},
      {"measurement": "ALT", "setting": "[1]; [5]", "value": "29.3±3.1", "unit": "U/l"},
      {"measurement": "AST", "setting": "[1]; [5]", "value": "31.4±2.6", "unit": "U/l"},
      {"measurement": "Creatinine", "setting": "[1]; [5]", "value": "0.68 ± 0.12", "unit": "mg/dL"},
      {"measurement": "Urea", "setting": "[1]; [5]", "value": "28.7 ± 2.3", "unit": "mg/dL"},
      {"measurement": "ALT", "setting": "[1]; ART 12.5 mg/kg body wt, 7 days", "value": "26.6 ± 2.2", "unit": "U/l"},
      {"measurement": "AST", "setting": "[1]; ART 12.5 mg/kg body wt, 7 days", "value": "29.6 ± 1.3", "unit": "U/l"},
      {"measurement": "Creatinine", "setting": "[1]; ART 12.5 mg/kg body wt, 7 days", "value": "0.77 ± 0.13", "unit": "mg/dL"},
      {"measurement": "Urea", "setting": "[1]; ART 12.5 mg/kg body wt, 7 days", "value": "26.3 ± 1.6", "unit": "mg/dL"},
      {"measurement": "ALT", "setting": "[1]; [6]", "value": "29.5±2.1", "unit": "U/l"},
      {"measurement": "AST", "setting": "[1]; [6]", "value": "28.5±2.8", "unit": "U/l"},
      {"measurement": "Creatinine", "setting": "[1]; [6]", "value": "0.49 ± 0.3", "unit": "mg/dL"},
      {"measurement": "Urea", "setting": "[1]; [6]", "value": "30.1 ± 2.6", "unit": "mg/dL"},
      {"measurement": "ALT", "setting": "[1]; ART 25 mg/kg body wt, 7 days", "value": "30.7 ± 1.5", "unit": "U/l"},
      {"measurement": "AST", "setting": "[1]; ART 25 mg/kg body wt, 7 days", "value": "31.7 ± 3.1", "unit": "U/l"},
      {"measurement": "Creatinine", "setting": "[1]; ART 25 mg/kg body wt, 7 days", "value": "0.62 ± 0.07", "unit": "mg/dL"},
      {"measurement": "Urea", "setting": "[1]; ART 25 mg/kg body wt, 7 days", "value": "28.2 ± 0.8", "unit": "mg/dL"},
      {"measurement": "ALT", "setting": "[1]; [7]", "value": "28.8±3.2", "unit": "U/l"},
      {"measurement": "AST", "setting": "[1]; [7]", "value": "30.3±1.9", "unit": "U/l"},
      {"measurement": "Creatinine", "setting": "[1]; [7]", "value": "0.62 ± 0.38", "unit": "mg/dL"},
      {"measurement": "Urea", "setting": "[1]; [7]", "value": "28.9 ± 2.1", "unit": "mg/dL"},
      {"measurement": "ALT", "setting": "[1]; ART 50 mg/kg body wt, 7 days", "value": "26.4 ± 2.3", "unit": "U/l"},
      {"measurement": "AST", "setting": "[1]; ART 50 mg/kg body wt, 7 days", "value": "29.3 ± 2.6", "unit": "U/l"},
      {"measurement": "Creatinine", "setting": "[1]; ART 50 mg/kg body wt, 7 days", "value": "0.71 ± 0.1", "unit": "mg/dL"},
      {"measurement": "Urea", "setting": "[1]; ART 50 mg/kg body wt, 7 days", "value": "27.1 ± 1.3", "unit": "mg/dL"},
      {"measurement": "ALT", "setting": "[2]; ART 6.25 mg/kg body wt i.p.", "value": "43.8 ± 1.8", "unit": "U/l"},
      {"measurement": "AST", "setting": "[2]; ART 6.25 mg/kg body wt i.p.", "value": "38.6 ± 2.6", "unit": "U/l"},
      {"measurement": "Creatinine", "setting": "[2]; ART 6.25 mg/kg body wt i.p.", "value": "1.21 ± 0.21", "unit": "mg/dL"},
      {"measurement": "Urea", "setting": "[2]; ART 6.25 mg/kg body wt i.p.", "value": "44.5 ± 1.8", "unit": "mg/dL"},
      {"measurement": "ALT", "setting": "[2]; ART 12.5 mg/kg body wt i.p.", "value": "41.3 ± 3.1", "unit": "U/l"},
      {"measurement": "AST", "setting": "[2]; ART 12.5 mg/kg body wt i.p.", "value": "38.2 ± 2.4", "unit": "U/l"},
      {"measurement": "Creatinine", "setting": "[2]; ART 12.5 mg/kg body wt i.p.", "value": "0.85 ± 0.18", "unit": "mg/dL"},
      {"measurement": "Urea", "setting": "[2]; ART 12.5 mg/kg body wt i.p.", "value": "32.3 ± 0.5", "unit": "mg/dL"},
      {"measurement": "ALT", "setting": "[2]; ART 25 mg/kg body wt i.p.", "value": "38.9 ± 2.9", "unit": "U/l"},
      {"measurement": "AST", "setting": "[2]; ART 25 mg/kg body wt i.p.", "value": "33.2 ± 2.8", "unit": "U/l"},
      {"measurement": "Creatinine", "setting": "[2]; ART 25 mg/kg body wt i.p.", "value": "0.71 ± 0.16", "unit": "mg/dL"},
      {"measurement": "Urea", "setting": "[2]; ART 25 mg/kg body wt i.p.", "value": "32.2 ± 1.1", "unit": "mg/dL"},
      {"measurement": "ALT", "setting": "[2]; ART 50 mg/kg body wt i.p.", "value": "36.6 ± 1.6", "unit": "U/l"},
      {"measurement": "AST", "setting": "[2]; ART 50 mg/kg body wt i.p.", "value": "31.8 ± 2.9", "unit": "U/l"},
      {"measurement": "Creatinine", "setting": "[2]; ART 50 mg/kg body wt i.p.", "value": "0.68 ± 0.11", "unit": "mg/dL"},
      {"measurement": "Urea", "setting": "[2]; ART 50 mg/kg body wt i.p.", "value": "27.1 ± 1.4", "unit": "mg/dL"},
      {"measurement": "percentage of G2/M cell count", "setting": "[3]", "value": "significant increase"}
    ]}
  ]
}
